Each structure is given as a SMILES string.

The target of assay [1] is Plasmin from human plasma (Homo sapiens, UniProt P00747). Nature of the assay: Plasmin inhibition assay with chromogenic substrate S-2251. The format is biochemical. The settings on record: ratio to Ki of monovalent AMB.
In the next assay the test system is plasmin. The settings on record: cited from earlier work.

Sequence of Plasmin from human plasma (P00747 581-810 limits assumed): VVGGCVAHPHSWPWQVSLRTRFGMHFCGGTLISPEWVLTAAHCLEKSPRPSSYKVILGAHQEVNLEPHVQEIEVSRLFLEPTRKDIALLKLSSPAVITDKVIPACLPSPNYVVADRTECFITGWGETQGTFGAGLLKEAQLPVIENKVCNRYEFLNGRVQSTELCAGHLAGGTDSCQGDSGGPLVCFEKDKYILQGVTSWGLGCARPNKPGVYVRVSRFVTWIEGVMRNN
Sequence of Plasmin from human plasma (P00747 98-580 partner limits assumed): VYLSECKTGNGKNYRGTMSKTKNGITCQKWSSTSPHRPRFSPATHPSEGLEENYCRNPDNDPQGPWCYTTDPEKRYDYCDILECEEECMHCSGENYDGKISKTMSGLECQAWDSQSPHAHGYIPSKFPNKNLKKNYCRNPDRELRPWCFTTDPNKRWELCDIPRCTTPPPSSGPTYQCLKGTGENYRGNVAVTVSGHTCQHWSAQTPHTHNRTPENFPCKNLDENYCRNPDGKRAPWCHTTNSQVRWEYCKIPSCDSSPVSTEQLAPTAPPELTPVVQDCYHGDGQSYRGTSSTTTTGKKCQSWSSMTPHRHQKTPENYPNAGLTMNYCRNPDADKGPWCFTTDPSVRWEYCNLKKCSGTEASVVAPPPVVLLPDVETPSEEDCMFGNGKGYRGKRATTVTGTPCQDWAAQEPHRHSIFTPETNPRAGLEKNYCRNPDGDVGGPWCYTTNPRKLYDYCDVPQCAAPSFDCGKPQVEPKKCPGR

Turning to `COCCOCCOCCOCCOCCOCCOCCOCCOCCOCCOCCOCCOCCOCCOCCOCCOCCOCCOCCOCCOCCOCCOCCOCCOCCC(=O)NCc1ccc(C(=N)N)cc1` [m‐dPEG24−AMB], in assay [1], the “rp: relative potency = Ki AMB/Ki multi” value was 2.7.
`N=C(N)c1ccc(CNC(=O)CCOCCOCCOCCOCCNC(=O)CN(CC(=O)NCCOCCOCCOCCOCCC(=O)NCc2ccc(C(=N)N)cc2)CC(=O)NCCOCCOCCOCCOCCC(=O)NCc2ccc(C(=N)N)cc2)cc1` [Tri‐PEG4−AMB]: the “rp: relative potency = Ki AMB/Ki multi” value in assay [1] is given as 27.6.
Consider `N=C(N)c1ccc(OCCCCCOc2ccc(C(=N)N)cc2)cc1` [Pentamidine, reference compound], for which the “rp: relative potency = Ki AMB/Ki multi” value in assay [1] was 664.3. For the same compound, the “Fold stronger plasmin inhibitor than the strongest monovalent benzamidine” value in the assay with plasmin is 13 fold.
As to `COCCOCCOCCOCCOCCOCCOCCOCCOCCOCCOCCOCCOCCC(=O)NCc1ccc(C(=N)N)cc1` [m‐dPEG12−AMB], the “rp: relative potency = Ki AMB/Ki multi” value in assay [1] is reported as 3.9.

Source of the values: publication PMC9828467 (Chemmedchem, 2022).
